According to US7056884B2, “Reduced FK228 and use thereof” (Astellas Pharma Inc., priority 2000, dated 2006):

Test system: Mouse histone deacetylase
Experiment: Assay of histone deacetylase activity ([3H] acetylated histone, crude histone deacetylase from FM3A cells)
Type: biochemical
Conditions: crude histone deacetylase fraction from FM3A cells, [3H] acetylated histone substrate, 37° C. for 10 min
Description: The histone deacetylase inhibitory activity of the FR135313 substance synthesized in Production Example 1 was examined.
Mouse breast cancer FM3A was supplied by Dr. Dai Ayusawa of Medical Department, Yokohama City University. This cell was subcultured in an ES medium containing 2% FBS (Flow Laboratories, hereinafter to be referred to as ES medium) at 37° C., in 5% CO2.
The [^3H] acetylated histone to be the substrate of histone deacetylase was prepared by culturing 1×10^8 cells of FM3A cell (suspended in 50 ml of ES medium) in the presence of 0.5 mCi/ml [^3H] sodium acetate and 5 mM sodium butyrate at 37° C. in 5% CO2 for 30 min, and immediately extracting histone fraction from the treated cells according to the following method. The specific radioactivity was 0.45 μCi/mg histone.
Extraction of histone protein from culture cell was conducted according to the method of Yoshida et al. (M. Yoshida et al., J. Biol. Chem. 265, 17174–17179 (1990)). […]
4 μl of [^3H] acetylated histone (2500 cpm/5 μg) and 96 μl of crude histone deacetylase fraction were admixed. […] The reaction was terminated by the addition of 10 μl of concentrated hydrochloric acid, and released [^3H] acetic acid was extracted with 1 ml of ethyl acetate, from which 0.9 ml was added to 5 ml of toluene scintillation solution and the radioactivity was measured.

SMILES: C/C=C1\NC(=O)[C@@H](CS)NC(=O)[C@@H](C(C)C)NC(=O)C[C@@H](/C=C/CCS)OC(=O)[C@H](C(C)C)NC1=O [FR135313 substance]
- histone deacetylase inhibitory activity IC50: not more than 1 ng/ml
